The source of these data is patent US9938301B2, “Dihydropyrimido fused ring derivative as HBV inhibitor” (QILU PHARMACEUTICAL CO., LTD., priority 2014, dated 2018).

This assay relates to HBV DNA in HepG2.2.15 cells. Description: HBV in vitro dot-blot hybridization test. Format: cell-based, Hepatitis B virus. Here is the method:
• 1. Purpose of the test: • The content of HBV DNA in HepG2.2.15 cells was detected by dot-blot hybridization test to evaluate an inhibitory action of the compound on HBV with an EC50 value as an indicator. • 2. Experimental materials: • 2.1 Cell lines: HepG2.2.15 Cells • HepG2.2.15 cell culture media (DMEM/F12, Invitrogen-11330057; 10% serum Invitrogen-10099141; 100 units/mL Penicillin and 10 μg/mL Streptomycin, Invitrogen-15140122; 1% non-essential amino acid, Invitrogen-11140076; 2 mM L-GLUTAMINE, Invitrogen-25030081; 300 µg/ml Geneticin, Invitrogen-10131027 • 2.2 Reagents: • Trypsin (I Invitrogen-25300062) • DPBS (Hyclone-SH30028.01B) • DMSO (Sigma-D2650-100ML) • 96-well cell-culture plate (Corning-3599) • CO2 incubator (HERA-CELL-240) • 20×SSC (Bio-serve Co. Ltd) • Tris-HCl (Aldirch-154563-1KG) • NaOH (Sinopharm 10019718) • NaCl (Sinopharm 10019308) • Hybridization solution (Major BioTech Co. Ltd, IMMUNE GOLD-HYB-500) • DIG Wash and Block Buffer set (Roche-11585762001) • Anti-digoxigenin-AP, Fab fragments from sheep (Roche-11093274910) • 2.3 Materials and Instruments: • Positively-Charged Nylon Membrane (GE-RPN2250B) • Transfer Membrane Instrument (Bio-Rad, 170-6545) • Hybridization Oven (HL-2000 Hybrilinker) • 3. Testing steps and Methods: • 3.1 HepG2.2.15 cells (4×10^4 cells/well) were planted into a 96-well plate, and at 37° C., 5% CO2 cultured overnight. • 3.2 On Day 2, the compounds were diluted in totally 6 concentrations with a dilution gradient of five times. The compounds at different concentrations were added into the culture wells in duplicate. The final concentration of DMSO in the culture media was 1%. 1 μM GLS4 was used as 100% inhibition control; 1% DMSO as 0% inhibition control. • 3.3 On Day 5, replacing with the fresh culture media containing the compound was performed. • 3.4 On Day 8 and Day 9, the culture media in the culture wells was removed, and the cells were harvested for dot-blot hybridization. • The lysate was added into a culture well, and at 37° C. incubating for half an hour to disintegrate cells; the supernatant was obtained by centrifugation and transferred into a new microplate; a denaturation solution was added, after sufficient mixing the denatured sample was transferred and imprinted onto a Nylon membrane, the nucleic acid was fixed onto the membrane by UV cross-linking. • Pre-hybridization: the membrane was incubated at 60° C. in a hybridization solution for 1 hour. • Hybridization: heating the denatured digoxin-labelled HBV DNA probe and incubating at 60° C. overnight. • Membrane Washing: performing high strigency washing twice, low strigency washing for 3 times. • Blocking: incubating the membrane at room temperature in a blocking solution for 30-60 minutes. • Hybridization: diluting the Antibody Solution with the blocking solution, in which the membrane was placed and incubated at room temperature for 30-60 minutes. • Developing: washing the membrane in a Detection Buffer for 5 minutes, followed by adding a developing solution, pressing and exposing. • The photos was saved in tiff format, and a gray value of the dot was quantified with quantity one software. • 3.5 Data Analysis: • 3.5.1 The inhibition percentage was calculated: % Inh.=[1−(sample dot gray value−1 μM GLS4 dot gray value 1)/(DMSO control dot gray value−1 μM GLS4 dot gray value 1)]×100. • 3.5.2 Calculating EC50: the concentration of the compound for 50% inhibition of HBV (EC50) was calculated by using GraphPad Prism Software. • 4.

The mark [1] stands for this setting: dot-blot hybridization assay, read-out: Concentration for 50% inhibition of HBV (EC50)value.
The mark [2] stands for this setting: summary list of target compounds, Examples 1-165 (same as Table 2), read-out: BIOACTIVITY (inhibitory actions on HBV DNA, EC50).
Setting [3] is: Hepatitis B virus, HepG2.2.15, dot-blot hybridization assay, read-out: Concentration for 50% inhibition of HBV (EC50)value.
Setting [4] is: Hepatitis B virus, HepG2.2.15, summary list of target compounds, Examples 1-165 (same as Table 2), read-out: BIOACTIVITY (inhibitory actions on HBV DNA, EC50).

pEC50: −log10 of the molar value. Read-outs that look alike come from different tables or passages of the source. A value given as a limit tells only on which side of the number the result lay.

On to `CCOC(=O)C1=C2C[C@@H](C#N)CN2C(c2nccs2)=NC1c1ccc(F)cc1Br` (mixture of isomers) [Example 26], for which the pEC50 reads like this: under setting [1], 6.00 to 6.30; under setting [2], 6.00 to 6.30.

Consider `CCOC(=O)C1=C2C[C@H](N(C)S(=O)(=O)NC)CN2C(c2nccs2)=N[C@H]1c1ccc(F)cc1Br` [Example 56], for which the pEC50 runs as follows: under setting [3], over 7.00; under setting [4], over 7.00.

`COC(=O)C1=C2C[C@H](NC(C)=O)CN2C(c2nccs2)=N[C@H]1c1ccc(F)cc1Cl` [Example 162]: the pEC50 by setting is: under setting [3], 6.30 to 7.00; under setting [4], 6.30 to 7.00.

For the compound `CCOC(=O)C1=C2CCCN2C(c2ncc(F)cc2F)=NC1c1ccc(F)cc1Cl` (racemic) [Example 76], the pEC50 was 5.30 to 6.00 under setting [3] and 5.30 to 6.00 under setting [4].

Turning to `CCOC(=O)C1=C2CN(C)CCN2C(c2nccs2)=NC1c1ccc(F)cc1Br` (racemic) [Example 96], the pEC50 runs as follows: under setting [3], 5.30 to 6.00; under setting [4], 5.30 to 6.00.

In the case of `CCOC(=O)C1=C2C[C@@H](N(C)C)CN2C(c2nccs2)=N[C@H]1c1ccc(F)cc1Br` [Example 37], the pEC50 is 5.30 to 6.00 under setting [3] and 5.30 to 6.00 under setting [4].

For the compound `CCOC(=O)C1=C2C[C@H](NS(=O)(=O)C(F)F)CN2C(c2nccs2)=N[C@H]1c1ccc(F)cc1Cl` [Example 128], the pEC50 is, setting by setting: under setting [3], over 7.00; under setting [4], over 7.00.

Consider `CCOC(=O)C1=C2C[C@H](O)CN2C(c2nccs2)=N[C@@H]1c1ccc(F)cc1Cl` [Example 35], for which the pEC50 was 5.30 to 6.00 under setting [3] and 5.30 to 6.00 under setting [4].

`CCNC(=S)N1CCN2C(c3nccs3)=N[C@@H](c3ccc(F)cc3Br)C(C(=O)OCC)=C2C1` [Example 103]: the pEC50 is 6.30 to 7.00 under setting [3] and 6.30 to 7.00 under setting [4].

Turning to `CCOC(=O)C1=C2CCCN2C(c2nccs2)=NC1c1ccc(F)cc1` (racemic) [Example 73], the pEC50 under setting [3] is 5.30 to 6.00 and the pEC50 under setting [4] is 5.30 to 6.00.

With `CCOC(=O)C1=C2C[C@H](NC(=O)NC)CN2C(c2nccs2)=N[C@H]1c1ccc(F)cc1Br` [Example 53], the pEC50 under setting [3] is over 7.00 and the pEC50 under setting [4] is over 7.00.

On to `CCOC(=O)C1=C2CC(C(=O)O)CN2C(c2nccs2)=NC1c1ccc(F)cc1Br` (racemic) [Example 23], for which the pEC50 runs as follows: under setting [3], 5.30 to 6.00; under setting [4], 5.30 to 6.00.

For the compound `CCOC(=O)C1=C2C[C@@H](NS(=O)(=O)C(F)F)CN2C(c2nccs2)=N[C@H]1c1ccc(F)cc1Br` [Example 123], the pEC50 by setting is: under setting [3], over 7.00; under setting [4], over 7.00.

Regarding `CCOC(=O)C1=C2C[C@H](NS(=O)(=O)/C=C/F)CN2C(c2nccs2)=N[C@H]1c1ccc(F)cc1Cl` [Example 129], the pEC50 is, setting by setting: under setting [3], over 7.00; under setting [4], over 7.00.

With `CCOC(=O)C1=C2CN(Cc3ccc(OC)cc3)CCN2C(c2nccs2)=NC1c1ccc(F)cc1Br` (racemic) [Example 97], the pEC50 was 5.30 to 6.00 under setting [3] and 5.30 to 6.00 under setting [4].

Regarding `CCOC(=O)CN(C)C[C@H]1CC2=C(C(=O)OCC)[C@H](c3ccc(F)cc3Br)N=C(c3nccs3)N2C1` [Example 20], the pEC50 was 5.30 to 6.00 under setting [3] and 5.30 to 6.00 under setting [4].

Take `CCOC(=O)C1=C2CN(Cc3cocn3)CCN2C(c2nccs2)=NC1c1ccc(F)cc1Br` (stereo not shown) [Example 100]: the pEC50 was 5.30 to 6.00 under setting [3] and 5.30 to 6.00 under setting [4].

Take `CCOC(=O)C1=C2C[C@@H](CC#N)CN2C(c2nccs2)=NC1c1ccc(F)cc1Br` (mixture of isomers) [Example 12]: the pEC50 is, setting by setting: under setting [1], 6.30 to 7.00; under setting [2], 6.30 to 7.00.

Regarding `CCOC(=O)C1=C2CCCN2C(c2nccs2)=NC1c1ccc(F)cc1C` (racemic) [Example 71], the pEC50 is, setting by setting: under setting [3], 6.30 to 7.00; under setting [4], 6.30 to 7.00.

With `COC(=O)C1=C2C[C@H](NS(=O)(=O)C3CC3)CN2C(c2nccs2)=N[C@H]1c1ccc(F)cc1Cl` [Example 156], the pEC50 by setting is: under setting [3], over 7.00; under setting [4], over 7.00.

Take `CCOC(=O)C1=C2C[C@H](NS(C)(=O)=O)CN2C(c2nccs2)=N[C@H]1c1ccc(F)cc1Cl` [Example 125]: the pEC50 is, setting by setting: under setting [3], over 7.00; under setting [4], over 7.00.

For `COC(=O)C1=C2C[C@H](NS(C)(=O)=O)CN2C(c2nccs2)=N[C@H]1c1cccc(F)c1Cl` [Example 165], the pEC50 by setting is: under setting [3], over 7.00; under setting [4], over 7.00.

For the compound `CCOC(=O)C1=C2C[C@@H](NC(=O)OC)CN2C(c2nccs2)=N[C@H]1c1ccc(F)cc1Br` [Example 43], the pEC50 is 6.30 to 7.00 under setting [3] and 6.30 to 7.00 under setting [4].

On to `CCOC(=O)C1=C2CN(C3COC3)CCN2C(c2nccs2)=N[C@H]1c1ccc(F)cc1Br` [Example 102], for which the pEC50 reads like this: under setting [3], 6.00 to 6.30; under setting [4], 6.00 to 6.30.

`CCOC(=O)C1=C2C[C@@H](C#N)CN2C(c2nccs2)=N[C@H]1c1ccc(F)cc1Cl` [Example 25]: the pEC50 is, setting by setting: under setting [3], 5.30 to 6.00; under setting [4], 5.30 to 6.00.

Take `CCOC(=O)C1=C2CC(NS(=O)(=O)C3CC3)CN2C(c2nccs2)=N[C@H]1c1ccc(F)cc1Br` (stereo partly shown) [Example 61]: the pEC50 was over 7.00 under setting [3] and over 7.00 under setting [4].

As for `CCOC(=O)C1=C2C[C@H](NS(C)(=O)=O)CN2C(c2nccs2)=N[C@H]1c1ccc(F)cc1F` [Example 138], the pEC50 is over 7.00 under setting [3] and over 7.00 under setting [4].

Regarding `CCOC(=O)C1=C2[C@H](NS(C)(=O)=O)CCN2C(c2nccs2)=N[C@H]1c1ccc(F)cc1Br` [Example 147], the pEC50 is 5.30 to 6.00 under setting [3] and 5.30 to 6.00 under setting [4].

For the compound `COC(=O)C1=C2C[C@H](NS(N)(=O)=O)CN2C(c2nccs2)=N[C@H]1c1ccc(F)cc1Cl` [Example 159], the pEC50 is, setting by setting: under setting [3], over 7.00; under setting [4], over 7.00.

For the compound `CCOC(=O)C1=C2C[C@@H](NC(=O)OC(C)(C)C)CN2C(c2nccs2)=N[C@H]1c1ccc(F)cc1Br` [Example 39], the pEC50 was over 7.00 under setting [3] and over 7.00 under setting [4].

In the case of `CCOC(=O)C1=C2C[C@H](NC(=O)C(F)F)CN2C(c2nccs2)=N[C@H]1c1ccc(F)cc1Cl` [Example 133], the pEC50 is, setting by setting: under setting [3], 6.30 to 7.00; under setting [4], 6.30 to 7.00.

In the case of `CCOC(=O)C1=C2C[C@H](N[S+]([O-])C(C)(C)C)CN2C(c2nccs2)=N[C@H]1c1ccc(F)cc1Cl` (stereo partly shown) [Example 140], the pEC50 by setting is: under setting [3], 6.00 to 6.30; under setting [4], 6.00 to 6.30.

Take `CCOC(=O)C1=C2C[C@H](c3nnn[nH]3)CN2C(c2nccs2)=N[C@H]1c1ccc(F)cc1Cl` [Example 32]: the pEC50 under setting [3] was 5.30 to 6.00 and the pEC50 under setting [4] is 5.30 to 6.00.

Regarding `CCOC(=O)C1=C2C[C@@H](CNS(=O)(=O)C3CC3)CN2C(c2nccs2)=N[C@H]1c1ccc(F)cc1Br` [Example 122], the pEC50 under setting [3] is 5.30 to 6.00 and the pEC50 under setting [4] is 5.30 to 6.00.

For `CCOC(=O)C1=C2CCCN2C(c2nccs2)=NC1c1cccc(F)c1Cl` (racemic) [Example 70], the pEC50 is 6.30 to 7.00 under setting [3] and 6.30 to 7.00 under setting [4].

Take `CCOC(=O)C1=C2CC(NC(=O)NC)CN2C(c2nccs2)=N[C@H]1c1ccc(F)cc1Br` (mixture of isomers) [Example 51]: the pEC50 is, setting by setting: under setting [3], 6.30 to 7.00; under setting [4], 6.30 to 7.00.

With `CCOC(=O)C1=C2CCCN2C(c2nccn2C)=NC1c1ccc(F)cc1Cl` (racemic) [Example 78], the pEC50 under setting [3] is 5.30 to 6.00 and the pEC50 under setting [4] was 5.30 to 6.00.

As to `CCOC(=O)C1=C2C[C@H](NC(=O)C3COC3)CN2C(c2nccs2)=N[C@H]1c1ccc(F)cc1Cl` [Example 139], the pEC50 is 5.30 to 6.00 under setting [3] and 5.30 to 6.00 under setting [4].
